Where a name gives a salt, the structure may show the parent alone.
Structure (SMILES)	melting point [°C]
NCc1nc(-c2ccccc2)c(-c2ccccc2)[nH]1 (as salt: hydrochloride) [Example 160, (4,5-diphenyl-1H-imidazol-2-yl)methanamine]	210 to 212
CCCCCCC(NCc1ccccc1)c1nc(-c2ccccc2)c[nH]1 (racemic) [Example 145, (R,S)-N-benzyl-1-(4-phenyl-1H-imidazol-2-yl)-1-heptanamine]	160 to 162
CN(Cc1nc(-c2ccc(-c3ccccc3)cc2)c[nH]1)C(=O)OC(C)(C)C [Example 149, 4-(2-{[(tert-butoxycarbonyl)(methyl)amino]methyl}-1H-imidazol-4-yl)-1,1′-biphenyl]	72 to 74
NCCCCCCc1nc(-c2ccccc2)c[nH]1 (as salt: hydrochloride) [Example 180, 6-(4-phenyl-1H-imidazol-2-yl)hexylamine]	244 to 246
CCCCC(=O)NCCc1nc(-c2ccc(-c3ccccc3)cc2)c[nH]1 [Example 32, N-[2-(4-[1,1′-biphenyl]-4-yl-1H-imidazol-2-yl)ethyl]pentanamide]	166 to 167
CCCCOC(=O)NCCc1nc(-c2ccc(-c3ccccc3)cc2)c[nH]1 [Example 31, butyl 2-(4-[1,1′-biphenyl]-4-yl-1H-imidazol-2-yl)ethylcarbamate]	136.7
Fc1ccc(-c2c[nH]c(C(CCCC(F)(F)F)NC3CCCCC3)n2)cc1 (racemic) [Example 136, (R,S)-N-{5,5,5-trifluoro-1-[4-(4-fluorophenyl)-1H-imidazol-2-yl]pentyl}cyclohexanamine]	220

Continued, values first:

melting point [°C]	Structure (SMILES)
216 to 217	CCN(CC)c1ccc(-c2c[nH]c([C@@H](N)C3CCCCC3)n2)cc1 (as salt: hydrochloride) [Example 310, 4-{2-[(S)-amino(cyclohexyl)methyl]-1H-imidazol-4-yl}-N,N-diethylaniline]
128 to 130	CC(C)CCOC(=O)NCCc1nc(-c2ccc(-c3ccccc3)cc2)c[nH]1 [Example 380, isopentyl 2-[4-(1,1′-biphenyl-4-yl)-1H-imidazol-2-yl]ethylcarbamate]
184.8	Fc1ccc(-c2c[nH]c([C@@H](NCC3CCCCC3)C3CCCCC3)n2)cc1 [Example 293, (S)-1-cyclohexyl-N-(cyclohexylmethyl)-1-[4-(4-fluorophenyl)-1H-imidazol-2-yl]methanamine]
177.5	CC(C)(C)c1cc(-c2c[nH]c(CCNC(=O)OCc3ccccc3)n2)cc(C(C)(C)C)c1O [Example 389, benzyl 2-[4-(3,5-ditert-butyl-4-hydroxyphenyl)-1H-imidazol-2-yl]ethylcarbamate]
103	CC(C)(C)c1ccc(-c2c[nH]c(CCNC(=O)OCC3CCC3)n2)cc1 [Example 340, cyclobutylmethyl 2-[4-(4-tert-butylphenyl)-1H-imidazol-2-yl]ethylcarbamate]
132.4	CCCCOC(=O)NCCc1nc(-c2ccc(-c3ccc(F)c(Cl)c3)cc2)c[nH]1 [Example 447, butyl 2-[4-(3′-chloro-4′-fluoro-1,1′-biphenyl-4-yl)-1H-imidazol-2-yl]ethylcarbamate]
213.9	Fc1cccc(-c2c[nH]c([C@@H](NC3CCCCC3)C3CCCCC3)n2)c1 (as salt: hydrochloride) [Example 314, N-{(S)-cyclohexyl[4-(3-fluorophenyl)-1H-imidazol-2-yl]methyl}cyclohexanamine]
207 to 210	c1ccc(-c2ccc(-c3c[nH]c(CCNC4CCCCC4)n3)cc2)cc1 [Example 249, N-[2-(4-[1,1′-biphenyl]4-yl-1H-imidazol-2-yl)ethyl]-cyclohexanamine]
180 to 186	Fc1cccc(-c2c[nH]c([C@@H](NCC3CCCCC3)C3CCCCC3)n2)c1 (as salt: hydrochloride) [Example 312, (S)-1-cyclohexyl-N-(cyclohexylmethyl)-1-[4-(3-fluorophenyl)-1H-imidazol-2-yl]methanamine]

Source: patent US7291641B2, “Derivatives of heterocycles with 5 members, their preparation and their use as medicaments” (Societe de Conseils de Recherches et d'Applications …, priority 1999, dated 2007)
